In ChEMBL document CHEMBL4028802, “DILIrank: the largest reference drug list ranked by the risk for developing drug-induced liver injury in humans” (Drug Discov Today, 2016):
Non-standard residues stand in square brackets, D forms with d. Residues, ends and D or L forms follow the SMILES beside them. dPhe(4-Cl) = N[C@H](Cc1ccc(Cl)cc1)C(=O)O; d2Nal = N[C@H](Cc1ccc2ccccc2c1)C(=O)O; dCit = NC(=O)NCCC[C@@H](N)C(=O)O; d3Pal = N[C@H](Cc1cccnc1)C(=O)O

How the values were obtained:
Homo sapiens [1] = organism: Homo sapiens; experiment: Liver toxicity in human assessed as induction of drug-induced liver injury by measuring severity class index
Homo sapiens [2] = organism: Homo sapiens; experiment: Liver toxicity in human assessed as induction of drug-induced liver injury by measuring verified drug-induced liver injury concern status
Throughout, for DILI severity class: key of the grades not given here.

SMILES	DILI_severity_class (Homo sapiens [1])	DILI_Concern (Homo sapiens [2])
Nc1nc(/C(=C/CC(=O)O)C(=O)N[C@@H]2C(=O)N3C(C(=O)O)=CCS[C@H]23)cs1 [CEFTIBUTEN]	3	Ambiguous-Dili-Concern
CO/N=C(\C(=O)N[C@@H]1C(=O)N2C(C(=O)O)=CCS[C@H]12)c1csc(N)n1 [CEFTIZOXIME]	4	Ambiguous-Dili-Concern
CO/N=C(\C(=O)N[C@@H]1C(=O)N2C(C(=O)O)=C(CSc3nc(=O)c(=O)[nH]n3C)CS[C@H]12)c1csc(N)n1 [CEFTRIAXONE]	4	Less-Dili-Concern
CO/N=C(\C(=O)N[C@@H]1C(=O)N2C(C(=O)O)=C(COC(N)=O)CS[C@H]12)c1ccco1 [CEFUROXIME]	5	Less-Dili-Concern
Cc1ccc(-c2cc(C(F)(F)F)nn2-c2ccc(S(N)(=O)=O)cc2)cc1 [CELECOXIB]	3	Less-Dili-Concern
CC1=C(C(=O)O)N2C(=O)[C@@H](NC(=O)[C@H](N)c3ccccc3)[C@H]2SC1 [CEPHALEXIN ANHYDROUS]	4	Less-Dili-Concern
CC1=C(C(=O)O)N2C(=O)[C@@H](NC(=O)[C@H](N)C3=CCC=CC3)[C@H]2SC1 [CEPHRADINE]	4	Ambiguous-Dili-Concern
O=C(O)COCCN1CCN(C(c2ccccc2)c2ccc(Cl)cc2)CC1 (stereo not drawn) [CETIRIZINE]	3	Less-Dili-Concern
CC(=O)N[C@H](Cc1ccc2ccccc2c1)C(=O)N[C@H](Cc1ccc(Cl)cc1)C(=O)N[C@H](Cc1cccnc1)C(=O)N[C@@H](CO)C(=O)N[C@@H](Cc1ccc(O)cc1)C(=O)N[C@H](CCCNC(N)=O)C(=O)N[C@@H](CC(C)C)C(=O)N[C@@H](CCCNC(=N)N)C(=O)N1CCC[C@H]1C(=O)N[C@H](C)C(N)=O [CETRORELIX] (Ac-[d2Nal][dPhe(4-Cl)][d3Pal]SY[dCit]LRP[dA]-NH2)	3	Ambiguous-Dili-Concern
CC1OC2(CS1)CN1CCC2CC1 (stereo not drawn) [CEVIMELINE]	3	Ambiguous-Dili-Concern
C[C@H](CCC(=O)O)[C@H]1CC[C@H]2[C@@H]3[C@H](O)C[C@@H]4C[C@H](O)CC[C@]4(C)[C@H]3CC[C@]12C [CHENODIOL]	8	Ambiguous-Dili-Concern
O=C(O)CCCc1ccc(N(CCCl)CCCl)cc1 [CHLORAMBUCIL]	3	Less-Dili-Concern
O=C(N[C@H](CO)[C@H](O)c1ccc([N+](=O)[O-])cc1)C(Cl)Cl [CHLORAMPHENICOL]	0	No-Dili-Concern
CN1CCN(C(c2ccccc2)c2ccc(Cl)cc2)CC1 (stereo not drawn) [CHLORCYCLIZINE]	0	Less-Dili-Concern
CNC1=Nc2ccc(Cl)cc2C(c2ccccc2)=[N+]([O-])C1 [CHLORDIAZEPOXIDE]	5	Less-Dili-Concern
CN1C(=O)CCS(=O)(=O)C1c1ccc(Cl)cc1 (stereo not drawn) [CHLORMEZANONE]	8	Most-Dili-Concern
CCN(CC)CCCC(C)Nc1ccnc2cc(Cl)ccc12 (stereo not drawn) [CHLOROQUINE]	3	Less-Dili-Concern
NS(=O)(=O)c1cc2c(cc1Cl)N=CNS2(=O)=O [CHLOROTHIAZIDE]	2	Less-Dili-Concern
CN(C)CCC(c1ccc(Cl)cc1)c1ccccn1 (stereo not drawn) [CHLORPHENIRAMINE]	0	No-Dili-Concern
CN(C)CCCN1c2ccccc2Sc2ccc(Cl)cc21 [CHLORPROMAZINE]	2	Less-Dili-Concern

SMILES	DILI_severity_class (Homo sapiens [1])	DILI_Concern (Homo sapiens [2])
CCCNC(=O)NS(=O)(=O)c1ccc(Cl)cc1 [CHLORPROPAMIDE]	2	Less-Dili-Concern
NS(=O)(=O)c1cc(C2(O)NC(=O)c3ccccc32)ccc1Cl (stereo not drawn) [CHLORTHALIDONE]	2	Ambiguous-Dili-Concern
Nc1ccn(C[C@@H](CO)OCP(=O)(O)O)c(=O)n1.O.O [CIDOFOVIR]	5	Ambiguous-Dili-Concern
O=C1CCc2cc(OCCCCc3nnnn3C3CCCCC3)ccc2N1 [CILOSTAZOL]	5	Ambiguous-Dili-Concern
CN/C(=N/CCSCc1nc[nH]c1C)NC#N [CIMETIDINE]	2	Less-Dili-Concern
O=C(O)c1cc(-c2ccccc2)nc2ccccc12 [CINCHOPHEN]	8	Most-Dili-Concern
O=C(O)c1cn(C2CC2)c2cc(N3CCNCC3)c(F)cc2c1=O [CIPROFLOXACIN]	7	Most-Dili-Concern
COc1ccc(C[C@@H]2c3cc(OC)c(OC)cc3CC[N@+]2(C)CCC(=O)OCCCCCOC(=O)CC[N@@+]2(C)CCc3cc(OC)c(OC)cc3[C@H]2Cc2ccc(OC)c(OC)c2)cc1OC.O=S(=O)([O-])c1ccccc1.O=S(=O)([O-])c1ccccc1 [CISATRACURIUM BESYLATE]	0	No-Dili-Concern
CN(C)CCCC1(c2ccc(F)cc2)OCc2cc(C#N)ccc21 (stereo not drawn) [CITALOPRAM]	7	Less-Dili-Concern
Nc1nc(Cl)nc2c1ncn2[C@H]1C[C@H](O)[C@@H](CO)O1 [CLADRIBINE]	3	Ambiguous-Dili-Concern
CC[C@H]1OC(=O)[C@H](C)[C@@H](O[C@H]2C[C@@](C)(OC)[C@@H](O)[C@H](C)O2)[C@H](C)[C@@H](O[C@@H]2O[C@H](C)C[C@H](N(C)C)[C@H]2O)[C@](C)(OC)C[C@@H](C)C(=O)[C@H](C)[C@@H](O)[C@]1(C)O [CLARITHROMYCIN]	8	Most-Dili-Concern
CN1CCC[C@@H]1CCO[C@](C)(c1ccccc1)c1ccc(Cl)cc1 [CLEMASTINE]	0	No-Dili-Concern
CCCC(=O)OCOC(=O)C1=C(C)NC(C)=C(C(=O)OC)C1c1cccc(Cl)c1Cl (stereo not drawn) [CLEVIDIPINE]	0	No-Dili-Concern
CCC[C@@H]1C[C@@H](C(=O)N[C@@H]([C@H]2O[C@H](SC)[C@H](OP(=O)(O)O)[C@@H](O)[C@H]2O)[C@H](C)Cl)N(C)C1 [CLINDAMYCIN PHOSPHATE]	3	Ambiguous-Dili-Concern
CCC[C@@H]1C[C@@H](C(=O)N[C@@H]([C@H]2O[C@H](SC)[C@H](O)[C@@H](O)[C@H]2O)[C@H](C)Cl)N(C)C1 [CLINDAMYCIN]	3	Less-Dili-Concern
Nc1nc(Cl)nc2c1ncn2[C@@H]1O[C@H](CO)[C@@H](O)[C@@H]1F [CLOFARABINE]	8	Ambiguous-Dili-Concern
CCOC(=O)C(C)(C)Oc1ccc(Cl)cc1 [CLOFIBRATE]	3	Less-Dili-Concern
CN(C)CCCC1c2ccccc2Nc2ccc(Cl)cc21 (stereo not drawn) [CLOMACRAN]	8	Most-Dili-Concern
COc1ccc2c(C(=O)c3ccc(Cl)cc3)c(C)n(CC(=O)O)c2c1 [CLOMETACIN]	8	Most-Dili-Concern
